pKd: −log10 of the molar value.
Biological target: human TYK2 (JH2domain-pseudokinase) (Homo sapiens (Human), UniProt P29597)
Assay: TYK2 JH2 Domain Binding Assay (KINOMEscan, DiscoveRx)
Conditions: 11-point dilution, duplicate
In short: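 TYK2 JH2 (G556–D888)–NFkB DBD fusion, DNA-tagged, from HEK293 extracts (<0.1 nM) competed against immobilised biotinylated ligand for 1 h at room temperature, 0.9% DMSO. Bead-retained kinase quantified by qPCR; Kd from 11-point 3-fold series (top 30,000 nM, duplicate), Hill fit with slope −1.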

Sequence of human TYK2 (JH2domain-pseudokinase) (P29597 556-888): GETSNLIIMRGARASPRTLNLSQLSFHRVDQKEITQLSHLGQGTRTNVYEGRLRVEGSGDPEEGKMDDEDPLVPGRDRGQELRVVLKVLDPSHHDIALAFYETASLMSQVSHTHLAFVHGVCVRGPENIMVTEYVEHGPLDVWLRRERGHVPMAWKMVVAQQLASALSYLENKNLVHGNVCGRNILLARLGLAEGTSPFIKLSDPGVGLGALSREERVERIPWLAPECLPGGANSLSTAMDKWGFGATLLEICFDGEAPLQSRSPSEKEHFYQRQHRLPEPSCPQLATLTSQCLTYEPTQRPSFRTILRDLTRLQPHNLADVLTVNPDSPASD

| pKd | SMILES |
| --- | --- |
| > 10.00 | Cc1nc2c(Nc3ccc(-c4cc(C)n(C)n4)cc3S(C)(=O)=O)cc(Nc3cnc(C)c(C)n3)nc2[nH]1 [I-508, N7-(4-(1,5-dimethyl-1H-pyrazol-3-yl)-2-(methylsulfonyl)phenyl)-N5-(5,6-dimethylpyrazin-2-yl)-2-methyl-3H-imidazo[4,5-b]pyridine-5,7-diamine] |
| > 10.00 | Cc1cc(Nc2cc(Nc3ccc(-c4cc(C)n(C)n4)cc3S(C)(=O)=O)c3nc(C)[nH]c3n2)nc(C)n1 [I-509, N7-(4-(1,5-dimethyl-1H-pyrazol-3-yl)-2-(methylsulfonyl)phenyl)-N5-(2,6-dimethylpyrimidin-4-yl)-2-methyl-3H-imidazo[4,5-b]pyridine-5,7-diamine] |
| > 10.00 | Cc1cc(Nc2cc(Nc3ccc(-c4nn(C)cc4C)cc3S(C)(=O)=O)c3nc(C(F)F)[nH]c3n2)nc(C)n1 [I-510, 2-(difluoromethyl)-N7-(4-(1,4-dimethyl-1H-pyrazol-3-yl)-2-(methylsulfonyl)phenyl)-N5-(2,6-dimethylpyrimidin-4-yl)-3H-imidazo[4,5-b]pyridine-5,7-diamine] |
| > 10.00 | Cc1cc(Nc2cc(Nc3ccc(-c4nn(C)cc4C)cc3S(C)(=O)=O)c3nc(C)[nH]c3n2)nc(C)n1 [I-511, N7-(4-(1,4-dimethyl-1H-pyrazol-3-yl)-2-(methylsulfonyl)phenyl)-N5-(2,6-dimethylpyrimidin-4-yl)-2-methyl-3H-imidazo[4,5-b]pyridine-5,7-diamine] |

Further lines, the molecule ahead of its results:

| SMILES | pKd |
| --- | --- |
| COCCCn1ccc(-c2ccc(Nc3cc(NC(=O)C4CC4)nc4[nH]c(C(F)F)nc34)c(S(C)(=O)=O)c2)n1 [I-501, N-(2-(difluoromethyl)-7-((4-(1-(3-methoxypropyl)-1H-pyrazol-3-yl)-2-(methylsulfonyl)phenyl)amino)-3H-imidazo[4,5-b]pyridin-5-yl)cyclopropanecarboxamide] | 9.30 to 10.00 |
| COCCCn1ccc(-c2ccc(Nc3cc(NC(=O)C4CC4)nc4[nH]c(C)nc34)c(S(C)(=O)=O)c2)n1 [I-502, N-(7-((4-(1-(3-methoxypropyl)-1H-pyrazol-3-yl)-2-(methylsulfonyl)phenyl)amino)-2-methyl-3H-imidazo[4,5-b]pyridin-5-yl)cyclopropanecarboxamide] | 9.30 to 10.00 |
| Cc1nc2c(Nc3ccc(-c4ncc(C)s4)cc3S(C)(=O)=O)cc(Nc3cccc(C#N)n3)nc2[nH]1 [I-503, 6-((2-methyl-7-((2-(methylsulfonyl)-4-(5-methylthiazol-2-yl)phenyl)amino)-3H-imidazo[4,5-b]pyridin-5-yl)amino)picolinonitrile] | 9.30 to 10.00 |
| Cc1csc(-c2ccc(Nc3cc(Nc4cccc(C#N)n4)nc4[nH]c(C)nc34)c(S(C)(=O)=O)c2)n1 [I-504, 6-((2-methyl-7-((2-(methylsulfonyl)-4-(4-methylthiazol-2-yl)phenyl)amino)-3H-imidazo[4,5-b]pyridin-5-yl)amino)picolinonitrile] | 9.30 to 10.00 |
| Cc1cc(Nc2cc(Nc3ccc([C@@H]4CCCCO4)cc3S(C)(=O)=O)c3nc(C(F)F)[nH]c3n2)nc(C)n1 [I-505, (S)-2-(difluoromethyl)-N5-(2,6-dimethylpyrimidin-4-yl)-N7-(2-(methylsulfonyl)-4-(tetrahydro-2H-pyran-2-yl)phenyl)-3H-imidazo[4,5-b]pyridine-5,7-diamine] | 9.30 to 10.00 |
| Cc1nc2c(Nc3ccc(-c4nc(C)c(C)s4)cc3S(C)(=O)=O)cc(Nc3cccc(C#N)n3)nc2[nH]1 [I-506, 6-((7-((4-(4,5-dimethylthiazol-2-yl)-2-(methylsulfonyl)phenyl)amino)-2-methyl-3H-imidazo[4,5-b]pyridin-5-yl)amino)picolinonitrile] | 9.00 to 9.30 |
| Cc1nc(-c2ccc(Nc3cc(Nc4cccc(C#N)n4)nc4[nH]c(C(F)F)nc34)c(S(C)(=O)=O)c2)sc1C [I-507, 6-((2-(difluoromethyl)-7-((4-(4,5-dimethylthiazol-2-yl)-2-(methylsulfonyl)phenyl)amino)-3H-imidazo[4,5-b]pyridin-5-yl)amino)picolinonitrile] | 8.00 to 9.00 |

— US10647713B2 (Nimbus Lakshmi, Inc., priority 2016, dated 2020)
